Assay results: patent publication US12576060B2, “Water soluble 3-O-acetyl-11-keto-β-boswellic acid and metal ion compositions, process for their preparation and uses thereof” (LAILA NUTRA PRIVATE LIMITED, priority 2020, dated 2026)
“And” between values parts separate entries of the source, which are not always exact repeats. Equal values may be shown once. Each block holds one molecule with its values, some of them ahead of it.

Legend:
[1] = tested on: Leukotriene B4 (LTB4) production; assay: Assay for Leukotriene B4 (LTB4) inhibition in A23187-induced polymorphonuclear leukocytes (PMNs); format: cell-based; conditions: human PMNs, 10 μM A23187 induction
Protocol: Human blood was collected from healthy volunteers from a peripheral vein in the presence of 2 mM EDTA. Plasma was separated by centrifugation at 1000 rpm for 10 minutes, and the residual cell pellet was resuspended in RPMI medium supplemented with 10% FBS and 2 mM EDTA. Thirty milliliters of blood cell suspension was carefully overlayed onto 15 mL of Ficoll/Lymphoprep in a 50 mL falcon tube in the dark, and the tube was centrifuged at 350×g for 30 minutes without using the brake. After removing the peripheral blood mononuclear cells (PBMC) and Ficoll/Lymphoprep, the settled red blood cell (RBC) layer containing granulocytes was treated with ACK lysis buffer (Gibco Cat #A10492-01) to lyse the RBC. After centrifugation at 1200 rpm for 10 minutes, the resulting cell pellet of polymorphonuclear leukocytes (PMNs) was resuspended in RPMI containing 1% newborn calf serum (NBCS). These cells were seeded in a 96-well plate at a density of 50,000 cells/well and treated with different concentrations of the test samples. Cells with 0.2% DMSO served as vehicle control. The plate was incubated in a CO2 incubator at 37° C. for 2 hrs. Finally, the cells treated with test samples were induced with 10 μM A23187 for 10 minutes at 37° C. in a CO2 incubator. The cells treated with only A23187 served as induction control. The plate was centrifuged at 1200 rpm for 5 minutes, and 120 μL cell-free supernatants were collected. Quantitation of LTB4 was performed using an ELISA kit (R&D Systems, Cat #SKGE006B) following the manufacturer's instructions. Absorbance was measured at 450 nm with a correction wavelength of 570 nm in a plate reader (Spectramax2e, Molecular Devices, USA). The reduction of LTB4 production was calculated using the following formula. % reduction of LTB4=[(Normalized Conc. of LTB4 in Induction)−(Normalized Conc. of LTB4 in Test sample)]/(Normalized Conc. of LTB4 in Induction)×100 The results are presented in tables: 3-5.

pH of 1% solution = format: physicochemical
Protocol: (§1) These potassium or sodium salts of AKBA were evaluated for their solubility in water and determined their pH.

[2] = Solubility in water of potassium or sodium salts of AKBA; format: physicochemical; conditions: volume of water needed to completely dissolve 1.0 g; room temperature (RT)
Protocol: as §1

[3] = tested on: Prostaglandin E2 (PGE2) production; assay: Assay for Prostaglandin E2 (PGE2) inhibition in LPS-induced peripheral blood mononuclear cells (PBMC); format: cell-based; conditions: LPS 10 ng/mL induction; for % Inhibition of PGE2: human PBMC
Protocol: Human blood was collected from healthy volunteers from a peripheral vein with a syringe containing EDTA at a final concentration of 2 mM. Plasma was separated by centrifugation at 1000 rpm for 10 minutes, and the residual blood was diluted with RPMI medium supplemented with 10% FBS and 2 mM EDTA in a ratio of 1:3. Thirty milliliters of blood was carefully layered onto the 15 mL of Ficoll/Lymphoprep in a 50 mL falcon tube, and tubes were centrifuged at 350×g for 30 minutes at an acceleration of 9 without using the brake. Buffy coat (interface between medium and Ficoll) containing peripheral blood mononuclear cells (PBMC) was collected carefully in 25 mL of cold 1× phosphate-buffered saline (PBS) and centrifuged at 1200 rpm for 10 minutes. Residual RBCs found in PBMCs pellet were removed by treating with ACK lysis buffer (Gibco Cat #A10492-01) and washed with fresh 1×PBS. PBMC were seeded in a 96-well plate with a density of 0.1×10^6 cells/well and treated with different concentrations of test samples. Cells with 0.2% DMSO served as vehicle control. The plate was incubated in a CO2 incubator at 37° C. for 2 hrs. Finally, cells were induced with LPS (10 ng/mL final concentration) for 4 hours except for vehicle control by keeping the plate at 37° C. in a CO2 incubator. The plate was centrifuged at 1200 rpm for 5 minutes, and 120 μL cell-free supernatants were collected. Quantitation of PGE2 was performed using an ELISA kit (Cayman Chemicals Cat #514010) according to the manufacturer's instructions. Absorbance was measured at 412 nm in a kinetic mode for 30 minutes in a microplate reader (Spectramax2e, Molecular Devices, USA). Percent Inhibition of PGE2 was calculated using the following formula. % Inhibition of PGE2=(Normalized conc. of PGE2 in Induction)−(Normalized conc. of PGE2 in Test sample)/×100 • (Normalized conc. of PGE2 in Induction)
The normalized PGE2 concentration in the LPS induced or the treated wells were obtained from deducting the […].

C-reactive protein (CRP) = assay: Reduction of C-Reactive Protein (CRP) in muscle, exercise-induced DOMS model of rats; format: in vivo, Sprague Dawley rats; conditions: 25 mg/kg for seven days; for Mean CRP conc.: EDL muscle tissue lysate; for % reduction of CRP from normal control: EDL muscle
Protocol: On day 1 of the study, male Sprague Dawley rats (8-12 weeks) were randomized into seven groups, each group contained seven animals. Basal readings (Paw Withdrawal Threshold) of mechanical hyperalgesia (Electronic von Frey) were obtained. Animals were dosed with either 25 mg/kg of the test items or vehicle (0.5% CMC-Na) for seven days. On day 5, Delayed Onset of Muscle Soreness (DOMS) was induced by introducing the animals to downhill treadmill running task (rate, 15 m/min; time, 5 min; incline, −20° followed by a 1-min rest, repeated 18 times) for 90 min or till exhaustion. Paw Withdrawal Threshold (PWT) was measured at 1 h, 4 h, 24 h (day 6) and 48 h (day 7) post to eccentric exercise and the exploratory behavior measurements were taken at 1 h and 4 h post to DOMS induction. Terminal necropsy was performed after euthanizing the animals under CO2 asphyxiation.
Small pieces of the extensor digitorum longus (EDL) muscles were macerated in liquid nitrogen (LN2) and homogenized in a tissue lysis buffer [50 mM Tris-HCl (pH 7.4), 150 mM NaCl, 5 mM EDTA, 0.5% sodium dodecyl sulfate (SDS), 1% deoxycholate, 0.1% Triton X-100, 1% Nonidet P-40 (NP-40), 0.05% mercaptoethanol, 10 mg/ml PMSF, 0.5 mg/ml leupeptin, 0.2 mg/ml aprotinin, and 1 mM Na3VO4]. The homogenate was centrifuged at 18928 g for 25 min at 4° C., and the supernatant was collected. Protein concentrations of the tissue lysates were determined using BCA protein assay kit (Thermo Fisher, Rockford, IL). C-reactive protein (CRP) concentrations in the muscle tissue lysates were determined using a commercial kit (Rat CRP/C-Reactive Protein ELISA Kit, Sigma, Cat #RAB0097) following the manufacturer's instructions, where the samples were diluted with assay buffer (1:10000) and performed the assay. The amount of CRP present in the tissue lysates was calculated and expressed as nanogram (ng) per milligram of protein. The reduction of CRP concentration in the muscle samples in the treated groups was calculated using the following formula.

pH (1% solution) (pH of 1% solution): 6.63
Solubility of 1.0 g of product in water [2]: >1000 mL
Molecule: CC(=O)O[C@@H]1CC[C@@]2(C)[C@@H](CC[C@]3(C)[C@@H]2C(=O)C=C2[C@@H]4[C@@H](C)[C@H](C)CC[C@]4(C)CC[C@]23C)[C@@]1(C)C(=O)O [LN03, 3-O-acetyl-11-keto-β-boswellic acid]
% reduction of LTB4 ([1]; 1.0 μg/mL): 16.72%
% reduction of LTB4 ([1]; 2.5 μg/mL): 26.83%
% Inhibition of PGE2 ([3]; 1.0 μg/mL): 15.02%
% Inhibition of PGE2 ([3]; 2.5 μg/mL): 26.28%
Mean CRP conc. (C-reactive protein (CRP)): 65.44 ng/mg of protein
% reduction of CRP from normal control (C-reactive protein (CRP)): 40.60%

pH (1% solution) (pH of 1% solution): 6.64
Solubility of 1.0 g of product in water [2]: >1000 mL
Molecule: CC(=O)O[C@@H]1CC[C@@]2(C)[C@@H](CC[C@]3(C)[C@@H]2C(=O)C=C2[C@@H]4[C@@H](C)[C@H](C)CC[C@]4(C)CC[C@]23C)[C@@]1(C)C(=O)O [LN04, 3-O-acetyl-11-keto-β-boswellic acid]
% reduction of LTB4 ([1]; 1.0 μg/mL): 16.03%
% reduction of LTB4 ([1]; 2.5 μg/mL): 28.71%
inhibition at 1 µg/mL ([3]; Homo sapiens, PBMC, 1.0 μg/mL): 17.2%
inhibition at 2.5 µg/mL ([3]; Homo sapiens, PBMC, 2.5 μg/mL): 20%

Molecule: [Cl-].[K+] [LN11, potassium chloride]
Mean CRP conc. (C-reactive protein (CRP)): 78.21 ng/mg of protein
% reduction of CRP from normal control (C-reactive protein (CRP)): 10.23%

Molecule: [Cl-].[Na+] [LN12, sodium chloride]
Mean CRP conc. (C-reactive protein (CRP)): 78.04 ng/mg of protein
% reduction of CRP from normal control (C-reactive protein (CRP)): 10.64%

Molecule: potassium salt or complex or chelate of 3-O-acetyl-11-keto-β-boswellic acid [LN05]
% reduction of LTB4 ([1]; 1.0 μg/mL): 21.95%
% reduction of LTB4 ([1]; 2.5 μg/mL): 57.57%
pH (1% solution) (pH of 1% solution): 9.24
% Inhibition of PGE2 ([3]; 1.0 μg/mL): 24.42%
% Inhibition of PGE2 ([3]; 2.5 μg/mL): 42.29%

Molecule: potassium salt or complex or chelate of 3-O-acetyl-11-keto-β-boswellic acid [LN07]
% reduction of LTB4 ([1]; 1.0 μg/mL): 20.26%
% reduction of LTB4 ([1]; 2.5 μg/mL): 55.85%
pH (1% solution) (pH of 1% solution): 9.21
Solubility of 1.0 g of product in water [2]: 60 mL
% Inhibition of PGE2 ([3]; 1.0 μg/mL): 26.50%
% Inhibition of PGE2 ([3]; 2.5 μg/mL): 49.08%
Mean CRP conc. (C-reactive protein (CRP)): 56.97 ng/mg of protein
% reduction of CRP from normal control (C-reactive protein (CRP)): 60.75%

Molecule: sodium salt of 3-O-acetyl-11-keto-β-boswellic acid [LN06]
% reduction of LTB4 ([1]; 1.0 μg/mL): 20.16%
% reduction of LTB4 ([1]; 2.5 μg/mL): 47.97% and 47.87%
pH (1% solution) (pH of 1% solution): 9.27
Solubility of 1.0 g of product in water [2]: 80 mL
% Inhibition of PGE2 ([3]; 1.0 μg/mL): 25.64%
% Inhibition of PGE2 ([3]; 2.5 μg/mL): 41.23%

Molecule: sodium salt of 3-O-acetyl-11-keto-β-boswellic acid [LN08]
% reduction of LTB4 ([1]; 1.0 μg/mL): 21.66%
% reduction of LTB4 ([1]; 2.5 μg/mL): 46.10%
pH (1% solution) (pH of 1% solution): 8.74
% Inhibition of PGE2 ([3]; 1.0 μg/mL): 25.61%
% Inhibition of PGE2 ([3]; 2.5 μg/mL): 47.56%
Mean CRP conc. (C-reactive protein (CRP)): 58.99 ng/mg of protein
% reduction of CRP from normal control (C-reactive protein (CRP)): 55.94%
